Results as given in PubChem BioAssay AID743184 (Broad Institute, 2013).
Calls of active or inactive are those of the source. No rule for the calls is given here.

Assay: M. tuberculosis BioA enzyme inhibitors, biochemical, single concentration, dry powder (AID 743184)
Conditions: at 9.99 µM; stronger effect = higher value

Row | Compound | activity score
1 | CC(=O)c1ccc(N2CCN(C(=O)c3ccccc3)CC2)cc1 | -3.73% (inactive)
2 | COc1ccc(N2CCN(C(=O)c3ccc4c(c3)OCO4)CC2)cc1 | -1.28% (inactive)
3 | CC(=O)c1ccc(N2CCN(C(=O)c3ccc(F)cc3)CC2)cc1 | -3.75% (inactive)
4 | Cc1ccc(NC(=O)N2CCN(c3ccccc3)CC2)cc1 | 17.2% (inactive)
5 | Cc1ccccc1/C=C(\CCC(=O)O)c1nc2ccccc2s1 | -6.51% (inactive)
6 | O=C(Nc1cccnc1)c1cc2nc(-c3cccs3)cc(C(F)(F)F)n2n1 | 6.22% (inactive)
7 | Cc1ccc(/C=C(\CC(=O)O)c2nc3ccccc3s2)cc1[N+](=O)[O-] | -2.58% (inactive)
8 | O=C(COc1ccc2ccc(=O)oc2c1)N1CCN(c2ccc(F)cc2)CC1 | 3.38% (inactive)
9 | O=C(Nc1ccncc1)c1cc2nc(C3CC3)cc(C(F)F)n2n1 | -0.117% (inactive)
10 | O=C(O)CC/C(=C\c1ccccc1[N+](=O)[O-])c1nc2ccccc2s1 | -1.5% (inactive)
11 | COc1ccc(C(=O)N2CCN(c3ccc(C(C)=O)cc3)CC2)cc1 | 20.7% (inactive)
12 | O=C(Nc1ccc(Cl)c(-c2nc3ccccc3[nH]2)c1)c1cccnc1 | 5.48% (inactive)
13 | O=C(Nc1cccnc1)c1cnn2c(C(F)F)cc(C3CC3)nc12 | -3.98% (inactive)
14 | COc1cccc(NC(=O)CCC2CCN(C(=O)c3ccc(C(C)=O)s3)CC2)c1 | 1.4% (inactive)
15 | CC(C)(C)c1ccc(C(=O)N2CCN(c3ccc4c(c3)OCO4)CC2)cc1 | -3.13% (inactive)
16 | Cc1nc2ccc(NC(=O)N3CCN(c4ccccc4)CC3)cc2s1 | -0.913% (inactive)
17 | CC(=O)c1ccc(N2CCN(C(=O)c3ccc(Br)cc3)CC2)c(F)c1 | 7.7% (inactive)
18 | CC(=O)c1ccc(N2CCN(C(=O)c3cccnc3)CC2)cc1 | -8.01% (inactive)
19 | Cc1cc(C)n2nc(C(=O)Nc3cccnc3)cc2n1 | 27.1% (inactive)
20 | COc1ccc(NC(=O)N2CCN(c3ccccc3)CC2)cc1 | -12.2% (inactive)
21 | CC(=O)c1ccc(N2CCN(Cc3ccc4c(c3)OCO4)CC2)cc1 | -2% (inactive)
22 | CC(=O)c1ccc(N2CCN(C(=O)c3ccc4c(c3)OCCO4)CC2)cc1 | -1.22% (inactive)
23 | O=C(c1ccc2c(c1)OCO2)N1CCN(c2ccccc2)CC1 | 0.078% (inactive)
24 | Cc1ccc(/C=C(\CCCC(=O)O)c2nc3ccccc3s2)cc1[N+](=O)[O-] | 1.05% (inactive)
25 | COc1cccc(NC(=O)N2CCN(c3ccccc3)CC2)c1 | 2.06% (inactive)
26 | O=C(Nc1ccc(F)cc1)N1CCN(c2ccccc2)CC1 | 5.21% (inactive)
27 | CC(=O)c1ccc(N2CCN(C(=O)c3cccc(F)c3)CC2)cc1 | -6.65% (inactive)

Row | Compound | activity score
28 | CC(=O)c1ccc(N2CCN(C(=O)c3ccc(C)cc3)CC2)cc1 | -7.19% (inactive)
29 | COC(=O)c1c(C(=O)OC)c(-c2cccc(F)c2)n2c1CS(=O)C2 (centres undefined) | -8.08% (inactive)
30 | Cc1ccc(/C=C(\CCC(=O)O)c2nc3ccccc3s2)cc1 | -6% (inactive)
31 | O=C(Nc1cccc(F)c1)N1CCN(c2ccccc2)CC1 | -3.46% (inactive)
32 | CC(=O)c1ccc(N2CCN(C(=O)c3ccc(Cl)cc3)CC2)cc1 | 5.46% (inactive)
33 | Cc1cccc(/C=C(\CCC(=O)O)c2nc3ccccc3s2)c1 | 1.92% (inactive)
34 | Cc1nc2cc(NC(=O)N3CCN(c4ccccc4)CC3)ccc2o1 | 4.18% (inactive)
35 | O=C(c1ccc2c(c1)OCO2)N1CCN(c2ccc(Cl)cc2)CC1 | -0.291% (inactive)
36 | O=C(O)CC/C(=C\c1ccc([N+](=O)[O-])cc1)c1nc2ccccc2s1 | 1.57% (inactive)
37 | O=C(Nc1cccnc1)N1CCN(c2ccccc2)CC1 | -4.1% (inactive)
38 | CC(=O)c1ccc(N2CCN(C(=O)c3cccc(Cl)c3)CC2)cc1 | -11.7% (inactive)
39 | Cc1cc(C)n2nc(C(=O)Nc3cccnc3)nc2n1 | 11.6% (inactive)
40 | O=C(Nc1cccnc1)c1cnn2c(C(F)(F)F)cc(-c3ccccc3)nc12 | 11.8% (inactive)
41 | O=C(Nc1cccc(Cl)c1)N1CCN(c2ccccc2)CC1 | 3.11% (inactive)
42 | O=C(c1ccc2c(c1)OCO2)N1CCN(c2ccc(F)cc2)CC1 | -13.9% (inactive)
43 | O=C(Nc1ccc(Cl)cc1)c1cc2nc(C3CC3)cc(C(F)(F)F)n2n1 | -6.7% (inactive)
44 | Cc1ccc(/C=C(\CCC(=O)O)c2nc3ccccc3s2)cc1[N+](=O)[O-] | -15.2% (inactive)
45 | CC(=O)c1ccc(N2CCN(C(=O)c3ccc4ncsc4c3)CC2)cc1 | -4.47% (inactive)
46 | O=C(Nc1ccc2[nH]ccc2c1)N1CCN(c2ccccc2)CC1 | 29.5% (inactive)
47 | O=C(c1ccc2c(c1)OCO2)N1CCN(Cc2ccccc2)CC1 | -10.2% (inactive)
48 | Cc1ccc(-c2cc(C(F)(F)F)n3nc(C(=O)Nc4cccnc4)cc3n2)cc1 | 8.78% (inactive)
49 | CCc1ccc(N2CCN(C(=O)c3ccc4c(c3)OCO4)CC2)cc1 | -0.719% (inactive)
50 | O=C(Nc1ccc2snnc2c1)N1CCN(c2ccccc2)CC1 | -7.17% (inactive)
51 | O=C(Nc1ccc2snnc2c1)N1CCCCC1 | -5.56% (inactive)
52 | COc1ccc(-c2cc(C(F)(F)F)n3nc(C(=O)Nc4cccnc4)cc3n2)cc1 | -9.52% (inactive)
53 | CCc1ccc(C(=O)N2CCN(Cc3ccc4c(c3)OCO4)CC2)cc1 | 0.311% (inactive)
54 | O=C(Nc1ccccc1)N1CCN(c2ccccc2)CC1 | -4.99% (inactive)
